Experimental data as given in patent US12146004B2, “Polymyxin compounds and uses thereof” (priority 2014, dated 2024).
In brackets after ≈: the same amount, converted by molar mass.

Legend:
Format in all cases: cell-based
Acinetobacter baumannii = tested on: Acinetobacter baumannii
Summary of the method: (§1)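 Susceptibility testing covered up to nine strains of each Gram-negative pathogen, among them resistant strains and strains with elevated MICs to Polymyxin. Values are MICs in μg/mL.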

Escherichia coli = tested on: Escherichia coli
Summary of the method: as §1

Klebsiella pneumoniae = tested on: Klebsiella pneumoniae
Summary of the method: as §1

Pseudomonas aeruginosa = tested on: Pseudomonas aeruginosa
Summary of the method: as §1

HK-2 cells = tested on: HK-2 cells
From the text: Values are reported relative to Polymyxin B.

SMILES	MIC A. baumanii 053 (Acinetobacter baumannii) [µg/mL]	MIC A. baumanii 056 (Acinetobacter baumannii) [µg/mL]	MIC A. baumanii ATCC BAA-747 (Acinetobacter baumannii) [µg/mL]	MIC E. coli 058 (Escherichia coli) [µg/mL]	MIC E. coli 061 (Escherichia coli) [µg/mL]	MIC E. coli ATCC 25922 (Escherichia coli) [µg/mL]	MIC K. pneumoniae 063 (Klebsiella pneumoniae) [µg/mL]	MIC K. pneumoniae 065 (Klebsiella pneumoniae) [µg/mL]	MIC K. pneumoniae ATCC 4352 (Klebsiella pneumoniae) [µg/mL]	MIC P. aeruginosa 068 (Pseudomonas aeruginosa) [µg/mL]	MIC P. aeruginosa 070 (Pseudomonas aeruginosa) [µg/mL]	MIC P. aeruginosa ATCC 27853 (Pseudomonas aeruginosa) [µg/mL]	HK-2 IC50 (HK-2 cells) [µg/mL]	MIC A. baumanii NCTC 13424 (Acinetobacter baumannii) [µg/mL]	MIC P. aeruginosa CCUG 59347 (Pseudomonas aeruginosa) [µg/mL]	MIC E. coli NCTC 9001 (Escherichia coli) [µg/mL]	MIC K. pneumoniae ATCC 13882 (Klebsiella pneumoniae) [µg/mL]	also measured
CC(C)CC(CN)C(=O)N[C@H](C(=O)N[C@@H](CN)C(=O)N[C@H]1CCNC(=O)[C@H]([C@@H](C)O)NC(=O)[C@H](CCN)NC(=O)[C@H](CCN)NC(=O)[C@H](CC(C)C)NC(=O)[C@@H](Cc2ccc(Br)cc2)NC(=O)[C@H](CCN)NC1=O)C(C)O (single isomer, unassigned; isomer 2) [Example 14, 2-aminomethyl-4-methyl pentanoyl polymyxin L-Thr-L-Dap-polymyxin [D-(4-bromo Phe)]-6]heptapeptide. Isomer 2]	32 (≈ 27.7 µM)	16 (≈ 13.9 µM)	0.125 (≈ 0.108 µM)	4 (≈ 3.46 µM)	16 (≈ 13.9 µM)	0.25 (≈ 0.216 µM)	64 (≈ 55.4 µM)	8 (≈ 6.93 µM)	0.25 (≈ 0.216 µM)	8 (≈ 6.93 µM)	16 (≈ 13.9 µM)	0.5 (≈ 0.433 µM)	76					MIC E. coli 059 (Escherichia coli): 8 µg/mL (≈ 6.93 µM); MIC E. coli 060 (Escherichia coli): 8 µg/mL (≈ 6.93 µM); MIC K. pneumoniae 062 (Klebsiella pneumoniae): 8 µg/mL (≈ 6.93 µM); MIC K. pneumoniae 064 (Klebsiella pneumoniae): 8 µg/mL (≈ 6.93 µM); MIC K. pneumoniae 066 (Klebsiella pneumoniae): 8 µg/mL (≈ 6.93 µM); MIC K. pneumoniae 067 (Klebsiella pneumoniae): >64 µg/mL
CC(C)CC(CN)C(=O)N[C@H](C(=O)N[C@@H](CN)C(=O)N[C@H]1CCNC(=O)[C@H]([C@@H](C)O)NC(=O)[C@H](CCN)NC(=O)[C@H](CCN)NC(=O)[C@H](CC(C)C)NC(=O)[C@@H](Cc2ccc(-c3ccccc3)cc2)NC(=O)[C@H](CCN)NC1=O)C(C)O (single isomer, unassigned; isomer 2) [Example 16, 2-aminomethyl-4-methyl pentanoyl polymyxin L-Thr-L-Dap-polymyxin [D-(4-phenyl Phe)]-6]heptapeptide. Isomer 2]	16 (≈ 13.9 µM)	4 (≈ 3.47 µM)	0.25 (≈ 0.217 µM)	4 (≈ 3.47 µM)	16 (≈ 13.9 µM)	0.25 (≈ 0.217 µM)	16 (≈ 13.9 µM)	1 (≈ 0.868 µM)	0.5 (≈ 0.434 µM)	4 (≈ 3.47 µM)	8 (≈ 6.94 µM)	0.5 (≈ 0.434 µM)	32					MIC E. coli 059 (Escherichia coli): 1 µg/mL (≈ 0.868 µM); MIC E. coli 060 (Escherichia coli): 5 µg/mL (≈ 4.34 µM); MIC K. pneumoniae 062 (Klebsiella pneumoniae): 4 µg/mL (≈ 3.47 µM); MIC K. pneumoniae 064 (Klebsiella pneumoniae): 2 µg/mL (≈ 1.74 µM); MIC K. pneumoniae 066 (Klebsiella pneumoniae): 4 µg/mL (≈ 3.47 µM); MIC K. pneumoniae 067 (Klebsiella pneumoniae): 32 µg/mL (≈ 27.8 µM)
CC(C)Cc1ccc(C[C@H]2NC(=O)[C@H](CCN)NC(=O)[C@@H](NC(=O)[C@H](CN)NC(=O)[C@@H](NC(=O)C3CNCC(CC(C)C)C3)C(C)O)CCNC(=O)[C@H]([C@@H](C)O)NC(=O)[C@H](CCN)NC(=O)[C@H](CCN)NC(=O)[C@H](CC(C)C)NC2=O)cc1 (single isomer, unassigned; isomer 2) [Example 25, (Ttrans-5-(isobutyl-piperidine)-3-carbonyl L-Thr-L-Dap-polymyxin [D-(4-isobutyl Phe)]-6]heptapeptide isomer 2]			0.5 (≈ 0.426 µM)	1 (≈ 0.853 µM)	0.5 (≈ 0.426 µM)	0.5 (≈ 0.426 µM)	2 (≈ 1.71 µM)	1 (≈ 0.853 µM)	0.25 (≈ 0.213 µM)	1 (≈ 0.853 µM)	1 (≈ 0.853 µM)	1 (≈ 0.853 µM)	20	0.5 (≈ 0.426 µM)	2 (≈ 1.71 µM)			
CC(C)C[C@@H]1NC(=O)[C@@H](CC2CCCCC2)NC(=O)[C@H](CCN)NC(=O)[C@@H](NC(=O)[C@H](CN)NC(=O)[C@@H](NC(=O)CC(N)C2CCCCC2)C(C)O)CCNC(=O)[C@H]([C@@H](C)O)NC(=O)[C@H](CCN)NC(=O)[C@H](CCN)NC1=O (single isomer, unassigned; isomer 2) [Example 33, 3-amino-3-cyclohexylpropanoyl L-Thr-L-Dap-polymyxin [D-cyclohexylalanine]-6 heptapeptide. Isomer 2]	64 (≈ 57.7 µM)	32 (≈ 28.9 µM)	0.25 (≈ 0.226 µM)	2 (≈ 1.8 µM)	16 (≈ 14.4 µM)	0.25 (≈ 0.226 µM)	64 (≈ 57.7 µM)	2 (≈ 1.8 µM)	0.03 (≈ 0.0271 µM)	8 (≈ 7.22 µM)	8 (≈ 7.22 µM)	0.25 (≈ 0.226 µM)	75	0.125 (≈ 0.113 µM)	0.5 (≈ 0.451 µM)	0.125 (≈ 0.113 µM)	0.5 (≈ 0.451 µM)	
CC(C)C[C@@H]1NC(=O)[C@@H](CC2CCCCC2)NC(=O)[C@H](CCN)NC(=O)[C@@H](NC(=O)[C@H](CN)NC(=O)[C@@H](NC(=O)C(CN)Cc2ccccc2)C(C)O)CCNC(=O)[C@H]([C@@H](C)O)NC(=O)[C@H](CCN)NC(=O)[C@H](CCN)NC1=O (single isomer, unassigned; isomer 2) [Example 34, 3-amino-2-benzylpropanoyl L-Thr-L-Dap-polymyxin [D-cyclohexylalanine]-6 heptapeptide. Isomer 2]	32 (≈ 28.7 µM)	16 (≈ 14.3 µM)	0.125 (≈ 0.112 µM)	2 (≈ 1.79 µM)	16 (≈ 14.3 µM)	0.25 (≈ 0.224 µM)	32 (≈ 28.7 µM)	4 (≈ 3.58 µM)	0.125 (≈ 0.112 µM)	4 (≈ 3.58 µM)	4 (≈ 3.58 µM)	0.25 (≈ 0.224 µM)	99	0.06 (≈ 0.0537 µM)	0.25 (≈ 0.224 µM)	0.125 (≈ 0.112 µM)	0.125 (≈ 0.112 µM)	
CC(C)C[C@@H]1NC(=O)[C@@H](CC2CCCCC2)NC(=O)[C@H](CCN)NC(=O)[C@@H](NC(=O)[C@H](CN)NC(=O)[C@@H](NC(=O)C(CCN)Cc2ccccc2)C(C)O)CCNC(=O)[C@H]([C@@H](C)O)NC(=O)[C@H](CCN)NC(=O)[C@H](CCN)NC1=O (single isomer, unassigned; isomer 2) [Example 35, 4-amino-2-benzylbutanoyl L-Thr-L-Dap-polymyxin [D-cyclohexylalanine]-6 heptapeptide. Isomer 2]	>64	64 (≈ 56.6 µM)	0.5 (≈ 0.442 µM)	4 (≈ 3.54 µM)	16 (≈ 14.2 µM)	0.25 (≈ 0.221 µM)	16 (≈ 14.2 µM)	0.5 (≈ 0.442 µM)	0.125 (≈ 0.111 µM)	1 (≈ 0.885 µM)	2 (≈ 1.77 µM)	0.25 (≈ 0.221 µM)	152	0.25 (≈ 0.221 µM)	0.25 (≈ 0.221 µM)	0.06 (≈ 0.0531 µM)	0.06 (≈ 0.0531 µM)	
CC(C)C[C@@H]1NC(=O)[C@@H](CC2CCCCC2)NC(=O)[C@H](CCN)NC(=O)[C@@H](NC(=O)[C@H](CN)NC(=O)[C@@H](NC(=O)C(CCN)c2ccccc2)C(C)O)CCNC(=O)[C@H]([C@@H](C)O)NC(=O)[C@H](CCN)NC(=O)[C@H](CCN)NC1=O (single isomer, unassigned; isomer 2) [Example 38, 4-amino-2-phenylbutanoyl L-Thr-L-Dap-polymyxin [D-cyclohexylalanine]-6 heptapeptide. isomer 2]	32 (≈ 28.7 µM)	8 (≈ 7.17 µM)	0.06 (≈ 0.0537 µM)	2 (≈ 1.79 µM)	16 (≈ 14.3 µM)	0.06 (≈ 0.0537 µM)	32 (≈ 28.7 µM)	1 (≈ 0.896 µM)		4 (≈ 3.58 µM)	4 (≈ 3.58 µM)	0.25 (≈ 0.224 µM)	255	0.03 (≈ 0.0269 µM)	0.25 (≈ 0.224 µM)	0.06 (≈ 0.0537 µM)	0.125 (≈ 0.112 µM)	
CCCCC(CCN)C(=O)N[C@H](C(=O)N[C@@H](CN)C(=O)N[C@H]1CCNC(=O)[C@H]([C@@H](C)O)NC(=O)[C@H](CCN)NC(=O)[C@H](CCN)NC(=O)[C@H](CC(C)C)NC(=O)[C@@H](CC2CCCCC2)NC(=O)[C@H](CCN)NC1=O)[C@@H](C)O (single isomer, unassigned; isomer 2) [Example 41, 2-(2-aminoethyl) hexanoyl L-Thr-L-Dap-polymyxin [D-cyclohexylalanine]-6 heptapeptide. Isomer 2]	>32	32 (≈ 29.2 µM)	0.06 (≈ 0.0547 µM)	4 (≈ 3.65 µM)	8 (≈ 7.3 µM)	0.125 (≈ 0.114 µM)	16 (≈ 14.6 µM)	1.5 (≈ 1.37 µM)		4 (≈ 3.65 µM)	4 (≈ 3.65 µM)	0.5 (≈ 0.456 µM)	206	0.06 (≈ 0.0547 µM)	0.5 (≈ 0.456 µM)	0.06 (≈ 0.0547 µM)	0.125 (≈ 0.114 µM)	cytotoxicity (HK-2 cells): significantly lower cytotoxicity compared with C6
